Test results from patent publication US11571403B2, “Methods for the treatment of non-alcoholic steatohepatitis” (Eiger Biopharmaceuticals, Inc., priority 2016, dated 2023).

Legend:
[1] = test system: STAM mouse model for NASH; assay: Biochemistry: plasma ALT and liver triglyceride, STAM mouse NASH model (Example 1); assay type: in vivo; conditions: 7 to 9 weeks of age
Source text: The STAM™ mouse is a model for NASH created by a combination of chemical and dietary interventions in C57BL/6 mice that manifest NASH at about 8 weeks, which progresses to fibrosis at about 12 weeks and then progresses to HCC at about 16 weeks. See, Saito et al., Sci. Rep. 2015, 5:12466.
In the study, the control groups were as follows: (i) Untreated Disease Control—a group of STAM mice injected with streptozotocin (STZ, Sigma-Aldrich, USA) at 2 days old, and fed a high fat diet (HFD, 57 kcal % fat, Cat #HFD32, CLEA Japan, Japan) starting at 4 weeks old; and (ii) Positive Control—a group of STAM mice treated with telmisartan (10 mg/kg QD from 7 to 9 weeks). In addition to these control groups, test groups of STAM mice treated with a low dose of ubenimex (5 mg/kg ubenimex BID from 7 to 9 weeks) or a high dose of ubenimex (25 mg/kg BID from 7 to 9 weeks), were included in the study. The low dose is equivalent to a human dose of 30 mg BID. The high dose is equivalent to a human dose of 150 mg BID. The viability, clinical signs and behavior were monitored daily, including body weight, signs of toxicity, moribundity and mortality. The mice were maintained in a SPF facility under controlled conditions of temperature (23±2° C.), humidity (45±10%), lighting (12-hour artificial light and dark cycles; light from 8:00 to 20:00) and air exchange. A high pressure was maintained in the experimental room to prevent contamination of the facility. The mice were housed in TPX cages (CLEA Japan) with a maximum of 4 mice per case.
All groups of mice were sacrificed at 9 weeks. Once sacrificed, the body weight of each mouse was recorded. The liver of each mouse was removed and weighed. The liver-to-body weight ratio was determined for each mouse. Blood serum levels of CK-18, ALT, and liver triglycerides were determined for each mouse. The livers were then sectioned and stained with hematoxylin and eosin (“HE”) stain, as well as Sirius red staining, to determine liver steatosis (ballooning) and fibrosis, respectively.

[2] = test system: STAM model of NASH fibrosis; assay: Fibrosis area by Sirius red staining, STAM model of NASH with fibrosis (Example 3); assay type: in vivo, mouse
Experimental: Ubenimex or telmisartan was administered orally in a volume at 10 mL/kg. Ubenimex was administered at a dose of 5 mg/kg once daily or twice daily. Telmisartan was administered at a dose of 5 mg/kg once daily. For HE staining, sections were cut from paraffin blocks of liver tissue prefixed in Bouin's solution and stained with Lillie-Mayer's hematoxylin (Muto Pure Chemicals Co., Ltd., Japan) and eosin solution (Wako Pure Chemical Industries, Ltd., Japan). NAFLD Activity Score (NAS) was calculated according to the criteria of Kleiner (Kleiner et al., Hepatology, 2005, 41:1313). To visualize collagen deposition, Bouin's fixed liver sections were stained using picro-Sirius red solution (Waldeck, Germany). For quantitative analysis of fibrosis area, bright field images of Sirius red-staining sections were captured around the central vein using a digital camera (DFC295; Leica, Germany) at 200-fold magnification, and the positive areas in 5 fields/section were measured using ImageJ software (National Institutes of Health, USA). Study groups: The following study groups were used. Group 1 (Vehicle): 8 NASH mice were orally administered vehicle (RO water) in a volume of 10 mL/kg twice daily from 6 to 11 weeks of age. Group 2 (Ubenimex QD for 5 weeks): 8 NASH mice were orally administered vehicle supplemented with ubenimex at a dose of 5 mg/kg once daily from 6 to 11 weeks of age. Group 3 (Ubenimex BID for 5 weeks): 8 NASH mice were orally administered vehicle supplemented with ubenimex at a dose of 5 mg/kg twice daily from 6 to 11 weeks of age. Group 4 (Ubenimex BID for 2 weeks): 8 NASH mice were orally administered vehicle supplemented with ubenimex at a dose of 5 mg/kg twice daily from 9 to 11 weeks of age. Group 5 (Telmisartan for 5 weeks): 8 NASH mice were orally administered pure water supplemented with telmisartan at a dose of 5 mg/kg once daily from 6 to 11 weeks of age.

[3] = test system: STAM model of NASH fibrosis; assay: NAFLD Activity Score by HE staining, STAM model of NASH with fibrosis (Example 3); assay type: in vivo, mouse; conditions: for Steatosis score 0, number of mice: score 0 = <5%; for Hepatocyte ballooning score 0, number of mice: score 0 = None; for Steatosis score 1, number of mice: score 1 = 5-33%; for Hepatocyte ballooning score 1, number of mice: score 1 = Few balloon cells; for Lobular inflammation score 2, number of mice: score 2 = 2-4 foci/200x; for Lobular inflammation score 3, number of mice: score 3 = >4 foci/200x; for Steatosis score 2, number of mice: score 2 = >33-66%; for Hepatocyte ballooning score 2, number of mice: score 2 = Many cells/prominent ballooning
Experimental: Ubenimex or telmisartan was administered orally in a volume at 10 mL/kg. Ubenimex was administered at a dose of 5 mg/kg once daily or twice daily. Telmisartan was administered at a dose of 5 mg/kg once daily.
For HE staining, sections were cut from paraffin blocks of liver tissue prefixed in Bouin's solution and stained with Lillie-Mayer's hematoxylin (Muto Pure Chemicals Co., Ltd., Japan) and eosin solution (Wako Pure Chemical Industries, Ltd., Japan). NAFLD Activity Score (NAS) was calculated according to the criteria of Kleiner (Kleiner et al., Hepatology, 2005, 41:1313). To visualize collagen deposition, Bouin's fixed liver sections were stained using picro-Sirius red solution (Waldeck, Germany). For quantitative analysis of fibrosis area, bright field images of Sirius red-staining sections were captured around the central vein using a digital camera (DFC295; Leica, Germany) at 200-fold magnification, and the positive areas in 5 fields/section were measured using ImageJ software (National Institutes of Health, USA).
Statistical tests: Statistical analyses were performed using Bonferroni Multiple Comparison Test on GraphPad Prism 6 (GraphPad Software Inc., USA). P values <0.05 were considered statistically significant. A trend or tendency was assumed when a one-tailed t-test returned P values <0.1. Results were expressed as mean±SD.
Study groups: The following study groups were used. Group 1 (Vehicle): 8 NASH mice were orally administered vehicle (RO water) in a volume of 10 mL/kg twice daily from 6 to 11 weeks of age. Group 2 (Ubenimex QD for 5 weeks): 8 NASH mice were orally administered vehicle supplemented with ubenimex at a dose of 5 mg/kg once daily from 6 to 11 weeks of age. Group 3 (Ubenimex BID for 5 weeks): 8 NASH mice were orally administered vehicle supplemented with ubenimex at a dose of 5 mg/kg twice daily from 6 to 11 weeks of age. Group 4 (Ubenimex BID for 2 weeks): 8 NASH mice were orally administered vehicle supplemented with ubenimex at a dose of 5 mg/kg twice daily from 9 to 11 weeks of age. Group 5 (Telmisartan for 5 weeks): 8 NASH mice were orally administered pure water supplemented with telmisartan at a dose of 5 mg/kg once daily from 6 to 11 weeks of age.

[4] = telmisartan 5 mg/kg QD oral, 6 to 11 weeks of age
[5] = ubenimex 5 mg/kg BID oral, 6 to 11 weeks of age
[6] = ubenimex 5 mg/kg BID oral, 9 to 11 weeks of age
[7] = ubenimex 5 mg/kg QD oral, 6 to 11 weeks of age

CCCc1nc2c(C)cc(-c3nc4ccccc4n3C)cc2n1Cc1ccc(-c2ccccc2C(=O)O)cc1 [Telmisartan, telmisartan]
Liver triglyercide (mean ± SD) ([1]; telmisartan 10 mg/kg QD): 22.4 ± 7.5 mg/g liver
Plasma ALT (mean ± SD) ([1]; telmisartan 10 mg/kg QD): 44 ± 13 U/L
Sirius red-positive area (fibrosis area, mean ± SD) [2, 4]: 0.57 ± 0.14%
Steatosis score 0, number of mice [3, 4]: 1
Lobular inflammation score 0, number of mice ([3]; score 0 = No foci, telmisartan 5 mg/kg QD oral, 6 to 11 weeks of age): 1
Hepatocyte ballooning score 0, number of mice [3, 4]: 3
Steatosis score 1, number of mice [3, 4]: 5
Hepatocyte ballooning score 1, number of mice [3, 4]: 3
Lobular inflammation score 2, number of mice [3, 4]: 3
Lobular inflammation score 3, number of mice [3, 4]: 2
NAS (mean ± SD) [3, 4]: 3.3 ± 1.0

CC(C)C[C@H](NC(=O)[C@@H](O)[C@H](N)Cc1ccccc1)C(=O)O [Ubenimex, (2S)-2-[[(2S,3R)-3-amino-2-hydroxy-4-phenylbutanoyl]amino]-4-methylpentanoic acid]
Liver triglyercide (mean ± SD) ([1]; ubenimex 5 mg/kg BID): 50.0 ± 22.7 mg/g liver
Plasma ALT (mean ± SD) ([1]; ubenimex 5 mg/kg BID): 59 ± 22 U/L
Liver triglyercide (mean ± SD) ([1]; ubenimex 25 mg/kg BID): 34.8 ± 22.2 mg/g liver
Plasma ALT (mean ± SD) ([1]; ubenimex 25 mg/kg BID): 62 ± 11 U/L
Sirius red-positive area (fibrosis area, mean ± SD) [2, 5]: 0.88 ± 0.22%
Sirius red-positive area (fibrosis area, mean ± SD) [2, 6]: 0.87 ± 0.14%
Sirius red-positive area (fibrosis area, mean ± SD) [2, 7]: 0.75 ± 0.16%
Steatosis score 0, number of mice [3, 5]: 1
Steatosis score 0, number of mice [3, 6]: 1
Hepatocyte ballooning score 0, number of mice [3, 5]: 5
Hepatocyte ballooning score 0, number of mice [3, 6]: 4
Hepatocyte ballooning score 0, number of mice [3, 7]: 2
Steatosis score 1, number of mice [3, 5]: 4
Steatosis score 1, number of mice [3, 6]: 4
Steatosis score 1, number of mice [3, 7]: 6
Lobular inflammation score 1, number of mice ([3]; score 1 = <2 foci/200x, ubenimex 5 mg/kg QD oral, 6 to 11 weeks of age): 1
Hepatocyte ballooning score 1, number of mice [3, 6]: 1
Hepatocyte ballooning score 1, number of mice [3, 7]: 4
Lobular inflammation score 2, number of mice [3, 5]: 2
Lobular inflammation score 2, number of mice [3, 6]: 4
Lobular inflammation score 2, number of mice [3, 7]: 3
Steatosis score 2, number of mice [3, 5]: 1
Steatosis score 2, number of mice [3, 6]: 1
Hepatocyte ballooning score 2, number of mice [3, 5]: 1
Hepatocyte ballooning score 2, number of mice [3, 6]: 1
Lobular inflammation score 3, number of mice [3, 5]: 4
Lobular inflammation score 3, number of mice [3, 6]: 2
Lobular inflammation score 3, number of mice [3, 7]: 2
NAS (mean ± SD) [3, 5]: 4.0 ± 1.7
NAS (mean ± SD) [3, 6]: 3.8 ± 1.0
NAS (mean ± SD) [3, 7]: 3.8 ± 0.8
